In experiment [1] the target is EGFR (human) (UniProt P00533). The experiment in a line: Assessment of DiFi Cell Growth Inhibition by MTS Assay.
Experiment [2] deals with EGFR (human) (UniProt P00533). To be noted: huvec.
For a further experiment, the target named is EGFR (UniProt P00533).
Sequence of EGFR (P00533 whole entry, looked up): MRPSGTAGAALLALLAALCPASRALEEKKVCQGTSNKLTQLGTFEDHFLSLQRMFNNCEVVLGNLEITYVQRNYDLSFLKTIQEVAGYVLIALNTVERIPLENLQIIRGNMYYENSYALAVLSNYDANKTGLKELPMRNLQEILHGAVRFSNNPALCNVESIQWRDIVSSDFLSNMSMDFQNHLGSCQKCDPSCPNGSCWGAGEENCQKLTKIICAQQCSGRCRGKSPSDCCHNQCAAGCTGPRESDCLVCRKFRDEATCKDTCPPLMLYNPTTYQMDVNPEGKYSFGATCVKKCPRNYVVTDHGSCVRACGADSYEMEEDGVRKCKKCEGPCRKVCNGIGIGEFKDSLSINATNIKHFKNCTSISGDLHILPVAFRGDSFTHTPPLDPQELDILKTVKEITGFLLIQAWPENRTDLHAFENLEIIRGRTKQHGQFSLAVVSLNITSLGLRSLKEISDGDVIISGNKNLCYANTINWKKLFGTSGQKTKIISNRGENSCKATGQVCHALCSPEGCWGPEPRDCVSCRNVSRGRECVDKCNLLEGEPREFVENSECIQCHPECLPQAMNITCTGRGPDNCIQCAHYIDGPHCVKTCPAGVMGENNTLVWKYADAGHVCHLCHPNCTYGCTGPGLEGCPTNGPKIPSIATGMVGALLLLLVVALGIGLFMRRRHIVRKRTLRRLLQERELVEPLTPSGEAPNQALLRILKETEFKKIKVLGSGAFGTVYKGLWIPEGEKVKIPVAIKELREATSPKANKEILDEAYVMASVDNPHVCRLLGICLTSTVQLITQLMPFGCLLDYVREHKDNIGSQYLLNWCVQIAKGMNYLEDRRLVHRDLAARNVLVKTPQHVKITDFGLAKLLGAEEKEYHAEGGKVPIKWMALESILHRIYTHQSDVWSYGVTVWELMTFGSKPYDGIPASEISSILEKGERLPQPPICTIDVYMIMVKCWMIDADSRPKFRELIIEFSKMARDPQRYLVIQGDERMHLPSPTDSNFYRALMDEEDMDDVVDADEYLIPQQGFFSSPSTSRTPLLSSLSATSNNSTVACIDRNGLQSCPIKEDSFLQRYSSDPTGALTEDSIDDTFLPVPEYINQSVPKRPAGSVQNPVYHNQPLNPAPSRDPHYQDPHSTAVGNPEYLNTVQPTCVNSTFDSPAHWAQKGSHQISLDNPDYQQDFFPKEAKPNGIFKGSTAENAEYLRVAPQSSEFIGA

Sequence of EGFR (human) (P00533 whole entry, looked up): as above

In general, IC50 refers to the concentration at which inhibition is half-maximal. Low readings indicate higher potency, high ones lower potency. `Cc1ccn2ncnc(Nc3ccc(F)c(Cl)c3)c12`: the IC50 amounted to 3.06 µM on EGFR (human) [1] and 0.602 µM on EGFR (human) [2]. On to `Cc1ccc(Nc2ncnn3c(C)ccc23)cc1O`, for which the IC50 against EGFR (human) [1] was greater than 10 µM; on EGFR (human) [2], 0.101 µM.

On EGFR (human) [1], `Cc1ccc(Nc2ncnn3cccc23)cc1O` gave an IC50 greater than 10 µM.

`Cc1cc2c(Nc3ccc(C)c(O)c3)ncnn2c1` displayed an IC50 against EGFR (human) [1] greater than 10 µM. For the molecule `Cc1ccc(Nc2ncnn3ccc(C)c23)cc1O`, the IC50 was greater than 10 µM against EGFR (human) [1] and 0.27 µM against EGFR (human) [2].

For `Cc1ccc2c(Nc3ccc(F)c(Cl)c3)ncnn12`, the IC50 against EGFR (human) [1] was greater than 10 µM; against EGFR (human) [2], greater than 2.5 µM. `Cc1ccc(Nc2ncnn3cc(C)c(C)c23)cc1O` registered an IC50 against EGFR (human) [1] greater than 10 µM. As for `Fc1ccc(Nc2ncnn3cccc23)cc1Cl`, the IC50 on EGFR (human) [1] was 1.84 µM; on EGFR it was 0.118 µM; against EGFR (human) [2] it was 0.345 µM.

As to `Cc1cc2c(Nc3ccc(F)c(Cl)c3)ncnn2c1`, the 50% inhibitory concentration (IC50) against EGFR (human) [1] turned out to be 1.6 µM; against EGFR (human) [2], 0.509 µM.
